Results from ChEMBL document CHEMBL3621165, “Design, Synthesis, and Biological Activity of Sulfonamide Analogues of Antofine and Cryptopleurine as Potent and Orally Active Antitumor Agents” (J Med Chem, 2015).
Activity calls are given as the source filed them. The rule behind the calls is not given here.

Legend:
[1] = Elimination half-life in ICR mouse plasma at 1 mg/kg, iv; type: ADME, organism-based; details: read-out: beta t1/2 (converted)
[2] = Cmax in ICR mouse plasma at 10 mg/kg, po; type: ADME, organism-based; set-up: dose 10 mg/kg, route oral
[3] = tested on: A549; assay: Ratio of antofine IC50 to compound IC50 for human A549 cells; type: functional
[4] = Decrease of cyclin-A2 expression in human Caki1 cells after 24 hrs by Western blot analysis; type: functional, cell-based; details: CAKI-1
[5] = Decrease of cyclin-D1 expression in human Caki1 cells after 24 hrs by Western blot analysis; type: functional, cell-based; details: CAKI-1
[6] = tested on: CAKI-1; assay: Cell cycle arrest in NNMT siRNA transfected human Caki1 cells assessed as accumulation at G2/M phase at 500 pM after 24 hrs by flow cytometry (reference value: 15.2%); type: functional
[7] = tested on: CAKI-1; assay: Cell cycle arrest in NNMT siRNA transfected human Caki1 cells assessed as accumulation at sub G1 phase at 500 pM after 24 hrs by flow cytometry (reference value: 0.9%); type: functional
[8] = Down regulation of phosphorylated p-38 expression in human Caki1 cells at 250 to 1000 pM after 24 hrs by Western blot analysis; type: functional, cell-based; details: CAKI-1

COc1cc2c3c(c4ccc(NS(C)(=O)=O)cc4c2cc1OC)CN1CCCC[C@@H]1C3
half-life [1]: 1.2 h | Cmax [2]: 78.8 ng/mL | Ratio IC50 [3]: 20 | Activity [4]: Dose-dependent effect | Activity [5]: Dose-dependent effect | Activity [6]: 13.8% | Activity [7]: 0.9% | Activity [8]: Active
